{"source": "patent US11490856B2", "about": "“Method and a system for analyzing neuropharmacology of a drug” (City University of Hong Kong, priority 2018, dated 2022)", "key": {"[1]": {"assay": "Solubility in water noted when preparing behavioral test concentrations", "type": "physicochemical", "protocol": "(§1) The experimental protocol uses a 96-well plate, with one zebrafish larva (5 days post-fertilization) in 90 μL of fish water in each well. 10 μL of a 10× solution of compound in 10% DMSO was added to each well to achieve the final concentration shown in the data, and for a final concentration of 1% DMSO. […] The larvae were pre-treated with compound for four hours, followed by a two minute dark stimulation to ensure fish were not sedated, followed by a 15 minutes period of observation for deviation from the anticipated normal movement/swimming behavior. […] After a 15 minute observation period, the larvae were treated with PTZ to a final concentration of 5 mM, and the number of seizures per larva at each concentration quantified for 15 minutes following PTZ treatment. The DanioVision platform (Noldus) was used to perform the animal behavioral recoding and analysis."}, "animal models": {"system": "animal models", "conditions": "previously reported; cited from earlier work"}, "zebrafish brain": {"system": "zebrafish brain", "assay": "HT-BAMing whole-brain activity mapping (T-score BAM) by calcium imaging of awake larvae", "type": "in vivo", "conditions": "for change in brain neural activity (T-score BAM pattern): 10 μM dose, 15-minute perfusion, five larvae per compound", "procedure": "The transgenic zebrafish line elav13:GCaMP5G may be maintained in aquaria under standard laboratory conditions (at 28° C. under a cycle of 14 h light, 10 h dark). Larvae of 6-8 dpf were used in the HT-BAMing experiments.\nFor example, the imaging process may be performed on a fully automated inverted fluorescent microscope (Olympus IX81) equipped with a cooled sCMOS camera (Neo, ANDOR) with a 10× (NA, 0.4) objective. Micro-manager 1.4 may be installed to control the microscope. For high-resolution, confocal imaging and Leica SP8 microscope with a resonant scanner may be used.\nFurthermore, a drug perfusion time may be set in which the two syringes may contain different fluid or solutions such that the changes induced by the drug may be recorded. With reference to FIGS. 8 and 9, to generate the functional BAM of a larva in response to a 15-minute period of chemical perfusion, or “treatment”, each larva was imaged over a 10-minute period before and after treatment.\nIn the experiments performed by the inventors, all drugs or compounds were dissolved in DMSO as a vehicle as ˜10 mM stock solutions. Treatment of the larvae was performed simply by switching the perfusion solution after immobilizing larvae in the microfluidic chip as shown in FIG. 8. Final concentrations of compounds tested in the primary screen were […].\nIn one example embodiment, the transformation module 106 is arrange to construct the brain activity maps 110 based on counting neural spikes representing changes of brain activity as detected on the images obtained. With reference to FIGS. 1 and 9, readings from multiple focal planes along the Z-axis (ventral direction) were acquired, and accumulated spike counts were derived from the calcium fluctuations of each Z-plane with a lateral resolution of 15.21 μm^2. The difference in spike-counts between the post- and pre-treatment periods was calculated and projected (by summing up along the Z-axis) to a two-dimensional surface to construct a BAM that reflects changes in brain activity and physiology of an individual larva in response to treatment.\nWith reference also to FIG. 10, a heat map may be used to intuitively display the activation level of the brain. To map brain activity, every collected frame from calcium imaging may be first meshed into small ROIs, each with a size of 15.21 μm^2. The time series of fluorescence signal in each ROI may then be filtered by a high pass filter to remove the interference from illumination fluctuations. The resulting trace may be used to calculate and visualize the spiking activities. For spike counting, a threshold may be applied to detect spikes from neural activity.\nIn the experiment, for each compound, the spike count data from five independent zebrafish larvae over a 10-minute period before and a 15-minute period after compound treatment. Before comparison across different samples, all the images were first resized and aligned to a uniform zebrafish brain template with the following process: for each raw image, the dark background was first removed to extract the fluorescent brain region, which was then mapped to the standard template via specific transformative adjustments (e.g. rotation, translation) using the brain center-line as a registration landmark and such that the symmetry with respect to the center-line was maximized in the resulted image. Lastly, the fish eye region was further removed by taking the regions within the template for downstream analysis.\nA brain activity map (BAM) A=[aij] was then derived by taking the change (increase or decrease) of spike counts in each ROI before (t0) and after chemical treatment (t1), and summed across multiple layers along the Z-axis:\nFor each compound, BAMs from five individual larvae were acquired following treatment with a 10 μM dose."}, "[2]": {"system": "pentylenetetrazole (PTZ) induced zebrafish seizure model", "conditions": "for seizure count over 15 minutes after PTZ: 5 mM PTZ after 4 hour pre-incubation with compound, n=12, vs DMSO control; for concentration at which seizures were reduced: 5 mM PTZ after 4 hour pre-incubation", "protocol": "In these experiments, with reference to FIG. 38, following a four-hour drug incubation period, zebrafish larvae were pre-monitored for normal movements/swimming behavior for 17 minutes. […] At the 17-minute mark, the larvae were treated with PTZ to a final concentration of 5 mM, and the number of seizures per larva and the average number of seizures at each concentration were quantified for 15 minutes following PTZ exposure.\nas §1"}, "[3]": {"system": "kainic-acid induced seizure model", "conditions": "mice, shown previously; cited from earlier work"}, "PTZ-larvae": {"system": "PTZ-larvae", "assay": "Calcium fluctuation traces and T-score BAM of PTZ-treated larval brains", "type": "in vivo, zebrafish", "conditions": "5 mM PTZ; 4 hour treatment at 10 μM", "excerpt": "With reference to FIGS. 39C to 39E, Such pharmacological effects could also be observed in the diametrically opposed BAMS from zebrafish treated in the same manner. NNC-711 is thought to principally act through the inhibition of GABA uptake from the synaptic cleft and glia via inhibition of SLC6A1 (solute carrier family 6 member 1; (GAT1)) leading to increased GABA-ergic neurotransmission."}, "[4]": {"system": "rat models of induced epilepsy", "conditions": "literature; cited from earlier work"}, "dopamine levels": {"system": "dopamine levels", "conditions": "mice, literature; cited from earlier work"}}, "note": "Like-named read-outs stand apart in the source and are kept apart here.", "data": [{"smiles": "OC(CNc1ccccc1)Cn1c2ccc(Br)cc2c2cc(Br)ccc21", "note": "(centres unmarked) [P7C3]", "values": [{"measurement": "solubility", "setting": "[1]; water / fish water, 1% DMSO", "result": "highly insoluble in water"}]}, {"smiles": "Oc1noc2c1CCNC2", "note": "[Gaboxadol]", "values": [{"measurement": "anti-epileptic activity in animal models", "setting": "animal models", "result": "anti-epileptic activity"}]}, {"smiles": "Nc1nnc(-c2cccc(Cl)c2Cl)c(N)n1", "note": "[lamotrigine, Lamotrigine]", "values": [{"measurement": "change in brain neural activity (T-score BAM pattern)", "setting": "zebrafish brain", "result": "inhibition of activity across almost the entire brain"}]}, {"smiles": "NC(=O)N1c2ccccc2CC(=O)c2ccccc21", "note": "[oxcarbazepine]", "values": [{"measurement": "change in brain neural activity (T-score BAM pattern)", "setting": "zebrafish brain", "result": "inhibition of activity across almost the entire brain"}]}, {"smiles": "NC(=O)N1c2ccccc2C=Cc2ccccc21", "note": "[carbamazepine, Carbamazepine]", "values": [{"measurement": "change in brain neural activity (T-score BAM pattern)", "setting": "zebrafish brain", "result": "inhibition of activity across almost the entire brain"}]}, {"smiles": "CC1=NN=C(c2ccc(N)cc2)c2cc3c(cc2C1)OCO3", "note": "[GYKI-52466]", "values": [{"measurement": "seizure count over 15 minutes after PTZ", "setting": "[2]", "result": "confirmed"}, {"measurement": "seizure count over 15 minutes after PTZ", "setting": "[2]; listed as GYKI 54266", "result": "hit compounds"}, {"measurement": "anticonvulsant activity in kainic-acid induced seizure model", "setting": "[3]", "result": "anticonvulsant activity"}]}, {"smiles": "CNC(=O)[C@@H](Cc1ccccc1)N(C)C(=O)[C@@H](Cc1ccc2ccccc2c1)N(C)C(=O)/C=C/CC(C)(C)N", "note": "[Tabimorelin]", "values": [{"measurement": "seizure count over 15 minutes after PTZ", "setting": "[2]", "result": "hit compounds"}]}, {"smiles": "O=C(O)C1=CCCN(CCON=C(c2ccccc2)c2ccccc2)C1", "note": "[NNC-711, NNC 711]", "values": [{"measurement": "seizure activity in larval brain (calcium fluctuation, T-score BAM)", "setting": "PTZ-larvae", "result": "reduction of seizure activity"}, {"measurement": "concentration at which seizures were reduced", "setting": "[2]", "result": 25, "unit": "µM"}, {"measurement": "anti-epileptic activity in animal models", "setting": "animal models", "result": "anti-epileptic activity"}, {"measurement": "anticonvulsant efficacy in rat models of induced epilepsy", "setting": "[4]", "result": "anticonvulsant efficacy"}]}, {"smiles": "COc1ccc(CNC(=O)Nc2ncc([N+](=O)[O-])s2)cc1", "note": "[AR-A014418]", "values": [{"measurement": "solubility", "setting": "[1]; water / fish water, 1% DMSO", "result": "highly insoluble in water"}]}, {"smiles": "COc1ccc2cc3[n+](cc2c1OC)CCc1cc2c(cc1-3)OCO2", "note": "[berberine, Berberine]", "values": [{"measurement": "effect on dopamine levels", "setting": "dopamine levels", "result": "increase dopamine levels"}]}, {"smiles": "NC(=O)CCC/N=C(\\c1ccc(Cl)cc1)c1cc(F)ccc1O", "note": "[progabide, Progabide]", "values": [{"measurement": "change in brain neural activity (T-score BAM pattern)", "setting": "zebrafish brain", "result": "inhibition of activity across almost the entire brain"}]}, {"smiles": "COc1ccc(/C=C/c2cc(OC)cc(=O)o2)cc1", "note": "[Yangonin]", "values": [{"measurement": "solubility", "setting": "[1]", "result": "highly insoluble in water"}, {"measurement": "seizure count over 15 minutes after PTZ", "setting": "[2]", "result": "hit compounds"}]}, {"smiles": "CN1CCc2c(c3ccccc3n2Cc2ccc(C(=O)NO)cc2)C1", "note": "[Tubastatin A]", "values": [{"measurement": "concentration at which seizures were reduced", "setting": "[2]", "result": 500, "unit": "µM"}, {"measurement": "seizure count over 15 minutes after PTZ", "setting": "[2]", "result": "hit compounds"}, {"measurement": "seizure count over 15 minutes after PTZ", "setting": "[2]; listed as Tubastatin-A", "result": "reduced seizure count"}]}, {"smiles": "CCC1(C)CC(=O)NC1=O", "note": "(centres unmarked) [ethosuximide, Ethosuximide]", "values": [{"measurement": "change in brain neural activity (T-score BAM pattern)", "setting": "zebrafish brain", "result": "inhibition of activity across almost the entire brain"}]}, {"smiles": "CC[C@@H](C(N)=O)N1CCCC1=O", "note": "[levetiracetam, Levetiracetam]", "values": [{"measurement": "change in brain neural activity (T-score BAM pattern)", "setting": "zebrafish brain", "result": "inhibition of activity across almost the entire brain"}]}, {"smiles": "COc1cccc([C@H](O)C2CCN(CCc3ccc(F)cc3)CC2)c1OC", "note": "[volinanserin]", "values": [{"measurement": "solubility", "setting": "[1]", "result": "highly insoluble in water"}, {"measurement": "seizure count over 15 minutes after PTZ", "setting": "[2]", "result": "reduced seizures"}, {"measurement": "seizure count over 15 minutes after PTZ", "setting": "[2]; listed as Volinanerin", "result": "hit compounds"}]}, {"smiles": "O=c1cc(-c2ccccc2)oc2c(O)c(O)ccc12", "note": "[7,8-dihydroxyflavone]", "values": [{"measurement": "solubility", "setting": "[1]", "result": "highly insoluble in water"}]}, {"smiles": "OCCCCC#Cc1cncc(OC[C@@H]2CCN2)c1", "note": "[Sazetidine]", "values": [{"measurement": "seizure count over 15 minutes after PTZ", "setting": "[2]", "result": "hit compounds"}]}, {"smiles": "Cc1ncc(CSSCc2cnc(C)c(O)c2CO)c(CO)c1O", "note": "[Pyrithioxine]", "values": [{"measurement": "change in brain neural activity (T-score BAM pattern)", "setting": "zebrafish brain", "result": "increased activity brain-wide"}, {"measurement": "change of action potential firing rate in selected neuronal cells from a zebrafish brain", "setting": "zebrafish brain; FIG. 9, after drug treatment", "result": "excitation"}]}, {"smiles": "Cl.O=C(O)C1CCCN(CCC=C(c2ccccc2)c2ccccc2)C1", "note": "(centres unmarked) [SKF89976A, SKF 89976A]", "values": [{"measurement": "anti-epileptic activity in animal models", "setting": "animal models", "result": "anti-epileptic activity"}]}, {"smiles": "N#Cc1ccccc1-c1cc(-c2ccccn2)cn(-c2ccccc2)c1=O", "note": "[perampanel, Perampanel]", "values": [{"measurement": "change in brain neural activity (T-score BAM pattern)", "setting": "zebrafish brain", "result": "inhibition of activity across almost the entire brain"}]}]}
